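Briefly, cells in 96-well plates were exposed to five compound concentrations for 48 h, and endpoints were estimated by linear interpolation. GI50 = concentration required for 50% inhibition of growth.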 Active and inactive are the calls of the source. Cut-off read from the data, not from the text of the source: active = GI50 up to about 1.1 µM and inactive = higher.
Experiments:
Test in all cases: NCI anticancer screen, dose series, 48 h
[1] = system: 786-0
[2] = system: U-251
[3] = system: NCI-H522
[4] = system: EKVX
[5] = system: SW-620
[6] = system: HL-60
[7] = system: UACC-257
[8] = system: NCI-H226
[9] = system: COLO 205
[10] = system: SNB-78
[11] = system: HCC 2998
[12] = system: SNB-75
[13] = system: HOP-92
[14] = system: HCT-15
[15] = system: OVCAR-4
[16] = system: OVCAR-5
[17] = system: BT-549
[18] = system: T47D
[19] = system: MDA-MB-435
[20] = system: DU-145

SMILES | GI50 [1] | GI50 [2] | GI50 [3] | GI50 [4] | GI50 [5] | GI50 [6] | GI50 [7] | GI50 [8] | GI50 [9] | GI50 [10] | GI50 [11] | GI50 [12] | GI50 [13] | GI50 [14] | GI50 [15] | GI50 [16] | GI50 [17] | GI50 [18] | GI50 [19] | GI50 [20]
C#C[C@]1(O)CCC2C3CCc4cc(Oc5nc(F)nc(-c6c7cc8ccccc8cc7c7n6CCS7)n5)ccc4C3CCC21C (stereo partly specified) | 51.8 µM (inactive) | 39.4 µM (inactive) | 21.3 µM (inactive) | 11.4 µM (inactive) | 44.3 µM (inactive) | 36.7 µM (inactive) | 77.6 µM (inactive) | > 100 µM (inactive) | 20.6 µM (inactive) | > 100 µM (inactive) | 85.5 µM (inactive) | 32.9 µM (inactive) | > 100 µM (inactive) |  |  |  |  |  |  | 
CC(=O)N1[C@H](C(=O)O)CS[C@H]1c1ccncc1 | > 100 µM (inactive) |  |  | > 100 µM (inactive) | > 100 µM (inactive) | > 100 µM (inactive) | > 100 µM (inactive) | > 100 µM (inactive) | > 100 µM (inactive) | > 100 µM (inactive) | > 100 µM (inactive) | > 100 µM (inactive) | > 100 µM (inactive) | > 100 µM | > 100 µM (inactive) | > 100 µM (inactive) |  |  |  | 
CCNC(=O)C(O)C1(O)CCC2[C@@H]3CCC4=CC(=O)C=C[C@]4(C)C3[C@@H](O)C[C@@]21C (stereo partly specified) | > 100 µM (inactive) | > 100 µM (inactive) | > 100 µM (inactive) | > 100 µM (inactive) | > 100 µM (inactive) | 29.8 µM (inactive) | > 100 µM (inactive) | > 87.5 µM (inactive) | > 100 µM (inactive) | > 100 µM (inactive) | > 100 µM (inactive) | > 100 µM (inactive) |  | > 100 µM | > 100 µM (inactive) | > 100 µM (inactive) |  |  |  | 
NC(=O)/C(=N\NC(=O)c1cc2ccccc2cc1O)C1C(=O)N(c2ccccc2)N=C1N (stereo unspecified) | 40 µM (inactive) | 30.3 µM (inactive) |  | 32.2 µM (inactive) | 37.2 µM (inactive) | 6 µM (inactive) | 23.4 µM (inactive) | 24.2 µM (inactive) | 28.8 µM (inactive) | 69.8 µM (inactive) | 37.9 µM (inactive) | 20.5 µM (inactive) | 22.3 µM (inactive) |  | 22.6 µM (inactive) | 22.2 µM (inactive) |  |  |  | 
COc1ccccc1NC(=O)CC(=O)N1N=C(C)C(/N=N/c2ccc(S(N)(=O)=O)cc2)C1=O (stereo unspecified) | > 100 µM (inactive) | > 100 µM (inactive) | > 100 µM (inactive) | > 100 µM (inactive) | > 100 µM (inactive) |  | > 100 µM (inactive) | > 100 µM (inactive) | > 100 µM (inactive) | > 100 µM (inactive) | > 100 µM (inactive) | > 100 µM (inactive) | > 100 µM (inactive) | > 100 µM | > 100 µM (inactive) | > 100 µM (inactive) |  |  |  | 
Cc1ccc(S(=O)(=O)OCOS(=O)(=O)c2ccc(C)cc2)cc1 | > 100 µM (inactive) | > 100 µM (inactive) | > 100 µM (inactive) | > 100 µM (inactive) | > 100 µM (inactive) | > 100 µM (inactive) | > 100 µM (inactive) |  | > 100 µM (inactive) | > 10 µM (inactive) | > 100 µM (inactive) |  |  | > 100 µM |  | > 100 µM (inactive) |  |  |  | 
Cn1cc/c(=N\N=c2/ccn(C)c3ccccc23)c2ccccc21 | 16.4 µM (inactive) | 15.7 µM (inactive) | 14.6 µM (inactive) | 14.7 µM (inactive) |  | 5.78 µM (inactive) | 13.9 µM (inactive) | 11.7 µM (inactive) | 10.4 µM (inactive) | 16.4 µM (inactive) | 15.8 µM (inactive) | 24.1 µM (inactive) |  | 15.8 µM | 12.7 µM (inactive) | 15.8 µM (inactive) |  |  |  | 
S=P1(c2ccccc2)Nc2ccc(Cl)cc2N1 (stereo unspecified) | > 100 µM (inactive) | > 100 µM (inactive) | 36.5 µM (inactive) | > 100 µM (inactive) | > 100 µM (inactive) | 7.48 µM (inactive) | > 100 µM (inactive) | > 100 µM (inactive) | 19.9 µM (inactive) | 23.5 µM (inactive) | > 100 µM (inactive) |  | 20.2 µM (inactive) | 58.5 µM | 6.49 µM (inactive) | > 100 µM (inactive) |  |  |  | 
O=C(Nc1cc([N+](=O)[O-])cc([N+](=O)[O-])c1)OC1C2CCC1C1OC1C2 (stereo unspecified) | > 50 µM (inactive) | > 50 µM (inactive) | 29.1 µM (inactive) | > 50 µM (inactive) | > 50 µM (inactive) | 32.1 µM (inactive) | 32.4 µM (inactive) |  | > 50 µM (inactive) | > 50 µM (inactive) | > 50 µM (inactive) | 23.7 µM (inactive) | > 50 µM (inactive) | > 50 µM | > 50 µM (inactive) | > 50 µM (inactive) |  |  |  | 
Cc1cc2c(=O)cc(-c3ccc(Cl)cc3)oc2c(C(=O)O)c1C | > 100 µM (inactive) | > 100 µM (inactive) | 29.5 µM (inactive) | > 100 µM (inactive) | > 100 µM (inactive) |  | > 100 µM (inactive) | > 100 µM (inactive) | > 100 µM (inactive) | > 100 µM (inactive) |  | > 100 µM (inactive) |  | > 100 µM | > 100 µM (inactive) | > 100 µM (inactive) |  |  |  | 
CCOC(=O)N1CCc2cc(OC)c(OC)cc2/C1=C/c1ccc(OC)c(OC)c1 | 42.8 µM (inactive) | 44.5 µM (inactive) | 40.1 µM (inactive) | 79.4 µM (inactive) | 46.2 µM (inactive) | 23.6 µM (inactive) | 37.2 µM (inactive) | 69.5 µM (inactive) | 37.8 µM (inactive) | 38 µM (inactive) | 42.6 µM (inactive) | 37.9 µM (inactive) | 30.5 µM (inactive) | 36.1 µM |  | 94 µM (inactive) |  |  |  | 
CN(C)CCSc1cccc(-c2cc(-c3cccc(SCCN(C)C)c3)nc(SCCN(C)C)n2)c1 | 7.85 µM (inactive) | 1.91 µM (inactive) | 1.61 µM (inactive) | 2.06 µM (inactive) | 1.87 µM (inactive) | 1.85 µM (inactive) | 1.59 µM (inactive) |  |  | 2.42 µM (inactive) | 2.29 µM (inactive) | 2.95 µM (inactive) | 0.551 µM (active) | 2.18 µM | 1.67 µM (inactive) | 6.79 µM (inactive) |  |  |  | 
O=C1Sc2sc(=S)sc2SC1c1ccccc1 (stereo unspecified) |  | 52.5 µM (inactive) | 14.2 µM (inactive) | > 100 µM (inactive) | 21.1 µM (inactive) | 20 µM (inactive) | > 74.3 µM (inactive) | > 81.8 µM (inactive) | 37.2 µM (inactive) | 31.9 µM (inactive) | > 89.7 µM (inactive) | > 50.2 µM (inactive) | 36.6 µM (inactive) | 19.4 µM | 18.3 µM (inactive) | > 100 µM (inactive) |  |  |  | 
Cc1cc(N(CCC#N)CCC#N)ccc1/N=N/c1ccc(S(N)(=O)=O)cc1 | > 100 µM (inactive) | > 100 µM (inactive) | > 100 µM (inactive) | > 100 µM (inactive) | > 100 µM (inactive) | > 100 µM (inactive) | > 100 µM (inactive) | > 100 µM (inactive) | > 100 µM (inactive) | > 100 µM (inactive) | > 100 µM (inactive) | > 100 µM (inactive) |  | > 100 µM | > 100 µM (inactive) | > 100 µM (inactive) |  |  |  | 
CC(=O)CSCc1ccccn1 | 97.1 µM (inactive) | 32.2 µM (inactive) | 6.9 µM (inactive) | 77.1 µM (inactive) | 45.8 µM (inactive) | 29.1 µM (inactive) | 41.1 µM (inactive) | 19.9 µM (inactive) | > 100 µM (inactive) |  | 39.9 µM (inactive) | 29.4 µM (inactive) | 38.6 µM (inactive) | 86.5 µM | 83.8 µM (inactive) | > 100 µM (inactive) | 47.5 µM (inactive) | 34.8 µM (inactive) | 33.4 µM (inactive) | 65.2 µM (inactive)
C=C1C(=O)OC2CC(C)C(C(CC(C)=O)OC(C)=O)=CCC12 (stereo unspecified) | 2.74 µM (inactive) | 15.8 µM (inactive) | 1.73 µM (inactive) | 11.8 µM (inactive) | 3.03 µM (inactive) | 3.25 µM (inactive) | 16.5 µM (inactive) | 34.1 µM (inactive) | 6.82 µM (inactive) |  | 10.5 µM (inactive) | 23.1 µM (inactive) | 6.87 µM (inactive) | 2.75 µM | 17 µM (inactive) | 17.6 µM (inactive) | 6.19 µM (inactive) | 20.4 µM (inactive) | 16.3 µM (inactive) | 16.5 µM (inactive)
CCCCCCCCCCCCCCCCCC(=O)OCC(CN(C)CCN(C)C)OC(=O)CCCCCCCCCCCCCCCCC (stereo unspecified) | > 100 µM (inactive) | > 100 µM (inactive) | > 100 µM (inactive) | > 100 µM (inactive) | > 100 µM (inactive) |  | > 100 µM (inactive) | > 100 µM (inactive) | > 100 µM (inactive) | > 100 µM (inactive) | 75.9 µM (inactive) | 98.2 µM (inactive) | > 100 µM (inactive) | > 100 µM | > 100 µM (inactive) | > 100 µM (inactive) |  |  |  | 
COc1cccc(NC(=O)CC(=O)N2N=C(N3c4ccccc4Sc4ccccc43)CC2c2ccccc2)c1 (stereo unspecified) | > 100 µM (inactive) | > 100 µM (inactive) |  | > 100 µM (inactive) | > 100 µM (inactive) |  | > 100 µM (inactive) | > 100 µM (inactive) | > 100 µM (inactive) | > 100 µM (inactive) | > 100 µM (inactive) | > 100 µM (inactive) | > 100 µM (inactive) | > 100 µM | > 100 µM (inactive) | > 100 µM (inactive) |  |  |  | 
